Measured values reported in publication PMC4315936 (Redox Biology, 2015).

Molecular target: mitochondrial complex I (NADH:ubiquinone oxidoreductase, NQR) (Mus musculus, UniProt P03888+Q91WD5+Q9DC70)
Experiment: NQR activity
Assay type: biochemical

## O=C1Nc2ccc(Cl)cc2[C@@](C#CC2CC2)(C(F)(F)F)O1 [EFV, efavirenz]
  IC50: < 10 µM
